Experimental data: patent US20250332173A1, “COMPOUNDS AND METHODS FOR MODULATING NUCLEIC ACID SPLICING” (REMIX THERAPEUTICS INC., priority 2021, published 2025)
Read-outs that look alike come from different tables or passages of the source.

Legend:
HTT = test: HiBiT protein abundance assay, HTT HiBiT K562 cell line; assay type: cell-based, human; details: 24 hours, top dose 10 μM
Protocol: (§1) Compounds described herein were used to screen for effects on quantitative protein abundance using a HiBit assay system (Promega). Quantitative protein abundance was determined by measuring the protein levels of HiBit-tagged protein targets expressed in cell culture via luminescence using the Nano-Glo HiBiT Lytic Detection System, which uses a split complementation assay format to reconstitute NanoBiT enzyme to generate a luminescent signal. A protein abundance assay was developed such that endogenous protein targets could be modified with the HiBiT peptide tag and their abundance could be assessed after compound treatment. Briefly, K562 cell lines containing a HiBiT-modification were treated with various compounds described herein (e.g., compounds of Formulas (I), (II), (III), (IV), (V), (VI), (VII), (VIII), or (IX)). After treatment for 24 hours, the protein abundance of a specific target was determined by measuring luminescence.
(§2) • Promega Nano-Glo HiBiT Lytic Detection System (cat #N3030) • Corning 384-well TC-treated microplates (cat #3570) • Synthego Engineered Cells Knock-In Clones
(§3) Cells were maintained in IMDM with 10% FBS. Before the assay, cells were diluted with […] growth media (IMDM+[…] media) and were seeded in a 384-well plate at a density of 10,000 cells/well (for each cell line listed in Table 5). Each compound was prepared as a 10-point 3-fold serial dilution in DMSO with the top dose at a final concentration of 10 μM in the well. Unmodified K562 cells were added at the previously specified density with DMSO to serve as an assay baseline and positive control (PC) and DMSO only with the respective modified cell lines was added to the negative control (NC) columns. Final DMSO concentration was kept at or below 0.25%. Treated cell plates were placed in an incubator at 37° C. with […] for 24 hours. After 24 hours, 25 μL of Complete HiBit Lytic reagent was added to each well at room temperature (e.g. one plate requiring 10 mL Lytic Buffer, 100 μL LgBiT Protein, 200 μL Lytic Substrate), shaken for 5 minutes at 600 RPM, then left to sit for 10 minutes for signal to stabilize before reading on a Spark Cyto plate reader (Tecan) with a 500 ms measurement time.
(§4) To determine compound effects on protein abundance of each target in Table 5, the percent response for each respective cell line was calculated at each compound concentration as follows:
(§5) For the normalized response at each concentration, a four-parameter logistical regression was fit to the data and the response was interpolated at the […] to determine a concentration for protein abundance at […] the untreated control.

Target C [1] = test: HiBiT protein abundance assay, Target C HiBiT K562 cell line; assay type: cell-based; details: Homo sapiens; HiBiT lytic detection, modified K562 cells, 24 hours, top dose 10 μM; read-out: Effect on protein abundance, Target C (IC50)
Protocol: as §2, §3, §4, §5

MYB = test: HiBiT protein abundance assay, MYB HiBiT K562 cell line; assay type: cell-based, human; details: 24 hours, top dose 10 μM
Protocol: as §1, §2, §3, §4, §5

[2] = system: K562 (human chronic myelogenous leukemia) cells; test: Cell Titer Glo 2.0 cell viability assay; assay type: cell-based; details: Homo sapiens, K562, 72 h, read-out: K562 GI50
Target C [3] = test: RT-qPCR splicing assay panel, Target C canonical junction (CJ) mRNA; assay type: cell-based, human; details: Homo sapiens, read-out: Target C (decrease in CJ mRNA levels, IC50)
Procedure, shortened: (§6)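 A673 or K562 cells were treated for 24 h at 37 °C with compound in 11-point 3-fold dilution (top 10 uM final, DMSO ≤0.25%). Lysates then went to one-step RT-qPCR measuring canonical-junction mRNA, normalized to GAPDH, GUSB or PPIA.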

MYB mRNA = test: RT-qPCR splicing assay, MYB canonical junction (CJ) and alternative junction (AJ) mRNA; assay type: cell-based, human; details: Homo sapiens
Procedure, shortened: (§7)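 Read-out is one-step RT-qPCR on cell lysates detecting the exon-exon junction of each isoform, normalized to a housekeeping gene (PPIA in A673, GAPDH or GUSB in K562).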

Target C [4] = test: HiBiT protein abundance assay, Target C (Promega Nano-Glo HiBiT Lytic Detection System, knock-in K562 cell line); assay type: cell-based, human; details: Homo sapiens, K562, 24 h, read-out: Effect on protein abundance, Target C (IC50 category)
Protocol: as §2, §3, §4, §5

SMN2 mRNA = test: RT-qPCR splicing assay, SMN2 canonical junction (CJ) mRNA; assay type: cell-based, human; details: Homo sapiens, read-out: SMN2 (decrease in CJ mRNA levels, IC50)
Procedure, shortened: as §6

HTT mRNA = test: RT-qPCR splicing assay, HTT canonical junction (CJ) and alternative junction (AJ) mRNA; assay type: cell-based, human; details: Homo sapiens
Procedure, shortened: as §7

[5] = HiBiT lytic detection, modified K562 cells, read-out: Effect on protein abundance, HTT (IC50)
[6] = HiBiT lytic detection, modified K562 cells, read-out: Effect on protein abundance, MYB (IC50)
[7] = K562 cells, 72 hours, Cell Titer Glo 2.0
[8] = canonical junction qPCR panel, Table 5, read-out: MYB (decrease in CJ mRNA levels, IC50)
[9] = decrease in MYB canonical junction (CJ) mRNA, RT-qPCR, read-out: MYB CJ IC50
[10] = increase in MYB alternative junction (AJ) mRNA, RT-qPCR, read-out: MYB AJ AC50
[11] = canonical junction qPCR panel, Table 5
[12] = decrease in HTT canonical junction (CJ) mRNA, RT-qPCR, read-out: HTT CJ IC50
[13] = increase in HTT alternative junction (AJ) mRNA, RT-qPCR, read-out: HTT AJ AC50
[14] = canonical junction qPCR panel, Table 5, read-out: HTT (decrease in CJ mRNA levels, IC50)

| IC50 (HTT; [5]) | IC50 (Target C [1]) | IC50 (MYB; [6]) | GI50 [2, 7] | IC50 (MYB mRNA; [8]) | IC50 (MYB mRNA; [9]) | IC50 (SMN2 mRNA; [11]) | IC50 (HTT mRNA; [12]) | IC50 (HTT mRNA; [14]) | Compound | AC50 (MYB mRNA; [10]) | AC50 (HTT mRNA; [13]) | other results |
| --- | --- | --- | --- | --- | --- | --- | --- | --- | --- | --- | --- | --- |
| < 0.1 µM | < 0.1 µM | 0.1 to 1 µM | 0.1 to 1 µM |  |  |  |  |  | Cn1cc2cc(-c3cc4ncn(C5CCNCC5)c(=O)c4cn3)c(O)c(F)c2n1 [Compound 1276] |  |  |  |
| 1 to 10 µM | 1 to 10 µM | 1 to 10 µM | 1 to 10 µM |  |  |  |  |  | Cc1cn2nc(-c3cnc4c(=O)n(C5CCNCC5)ncc4c3)cc(C)c2n1 [Compound 1411] |  |  |  |
|  |  |  |  |  |  |  |  |  | Cc1cn2nc(-c3ccc4c(=O)n(C5CCN(C6CCC6)C6(CC6)C5)ncc4n3)cc(C)c2n1 (centres unmarked) [Compound 1540, 6-(4-cyclobutyl-4-azaspiro[2.5]octan-7-yl)-2-(2,8-dimethylimidazo[1,2-b]pyridazin-6-yl)pyrido[2,3-d]pyridazin-5-one] |  |  | IC50 (Target C [3]): 0.1 to 1 µM; IC50 (MYB mRNA; read-out: MYB (decrease in CJ mRNA levels, IC50)): 100 to 1000 nM; AC50 (MYB mRNA; read-out: MYB AJ AC50 (nM)): 100 to 1000 nM; IC50 (MYB mRNA; read-out: MYB CJ IC50 (nM)): 100 to 1000 nM; IC50 (Target C [4]): 0.1 to 1 µM; IC50 (HTT; read-out: Effect on protein abundance, HTT (IC50 category), HiBiT K562 cell line): 0.1 to 1 µM; IC50 (SMN2 mRNA): < 0.1 µM; IC50 (HTT mRNA; read-out: HTT (decrease in CJ mRNA levels, IC50)): 100 to 1000 nM; AC50 (HTT mRNA; read-out: HTT AJ AC50 (nM)): 100 to 1000 nM; IC50 (HTT mRNA; read-out: HTT CJ IC50 (nM)): 100 to 1000 nM; IC50 (MYB; read-out: Effect on protein abundance, MYB (IC50 category), HiBiT K562 cell line): 0.1 to 1 µM; GI50 [2]: 0.1 to 1 µM |
| > 10 µM | > 10 µM | > 10 µM |  | > 10000 nM | > 10000 nM | > 10 µM | > 10000 nM | > 10000 nM | CN1CCN(c2ccc3ncn(-c4ccc5nn(C)cc5c4)c(=O)c3c2)CC1 [Compound 2154] | > 10000 nM | > 10000 nM |  |
| > 10 µM | > 10 µM | > 10 µM |  | > 10000 nM | > 10000 nM | > 10 µM | > 10000 nM | > 10000 nM | Cn1cc2cc(-n3cnc4ccc(N5CCNCC5)cc4c3=O)ccc2n1 [Compound 2155] | > 10000 nM | > 10000 nM |  |
| > 10 µM | > 10 µM | > 10 µM | 1 to 10 µM |  |  | > 10 µM | > 10000 nM | > 10000 nM | Cc1cc(-c2nc3cc(N4CCN(C)CC4)ccc3c(=O)[nH]2)cc2cn(C)nc12 [Compound 2214] |  | > 10000 nM | IC50 (Target C [3]; [11]): > 10 µM |

| Compound | IC50 (HTT; [5]) | IC50 (Target C [1]) | IC50 (MYB; [6]) | GI50 [2, 7] | IC50 (MYB mRNA; [8]) | IC50 (MYB mRNA; [9]) | IC50 (SMN2 mRNA; [11]) | IC50 (HTT mRNA; [12]) | IC50 (HTT mRNA; [14]) | AC50 (MYB mRNA; [10]) | AC50 (HTT mRNA; [13]) | other results |
| --- | --- | --- | --- | --- | --- | --- | --- | --- | --- | --- | --- | --- |
| Cn1cc2cc(-n3cnc4ccc(C5=CCNCC5)cc4c3=O)ccc2n1 [Compound 2151] | > 10 µM | > 10 µM | > 10 µM |  | 100 to 1000 nM | > 10000 nM | > 10 µM | > 10000 nM | > 10000 nM | 100 to 1000 nM | > 10000 nM |  |
